US20070299029A1, “Hepatic stellate cell specific promoter and uses thereof” (Agency for Science, Technology and Research, priority 2005, published 2007)

B1: PDGF-BB: recombinant human platelet derived growth factor-BB, pro-fibrotic cytokine (BioVision) (protein, UniProt P01127 82-190, looked up)
Platelet-derived growth …: SLGSLTIAEPAMIAECKTRTEVFEISRRLIDRTNANFLVWPPCVEVQRCSGCCNNRNVQCRPTQVQLRPVQVRKIEIVRKKPIFKKATVTLEDHLACKCETVAAARPVT

Key:
[1] = test system: GFAP-lacZ expression in T6/lacZ/C1 cells; test: X-gal staining of T6/lacZ/C1 cells treated with TGF-β1, PDGF-BB and LPS; format: cell-based, rat; conditions: 0.1 to 10 ng/ml, full DMEM, 72 hours, X-gal one hour
Method: A lacZ reporter assay kit for cell staining (InvivoGen, CA, USA) was used to detect the reporter gene activity in both stable and transient transfectants. Development of the blue end product was monitored at different time intervals (15, 30, 60, 90, and 120 minutes). The staining results were documented with a digital camera (DP12) attached to an Olympus inverted bright field microscope (IX51).
To determine possible induction of GFAP-lacZ expression by molecules with pro-fibrotic and proinflammatory properties in activated HSC the T6/lacZ/C1 cells were treated with TGF-β1, PDGF-BB and LPS respectively at various concentrations (0, 0.1, 1 and 10 ng/ml) in the full DMEM medium for 72 hours. The cells were then stained with X-gal for one hour and photographed. […] In order to obtain truly quantitative data, a solution assay was employed to measure possible up-regulation of β-galactosidase activity by TGF-β1 in experiments below.

[2] = test system: 2.2 kb hGFAP-lacZ transgene in T6/lacZ/C1 cells; test: quantitative solution assay of β-galactosidase activity in T6/lacZ/C1 cells; format: cell-based, rat
Method: To quantify the β-galactosidase activity in cell extracts reported in FIGS. 4 to 10, an enzyme assay kit (E2000, Promega, Wis., USA) was used to measure the specific activity of P-galactosidase, according to the manufacturer's instructions in a 96-well format. Briefly, the cells were washed twice with 1×PBS buffer (pH7.4), lysed for 15 minutes at room temperature with the reporter lysis buffer, and harvested using a cell scraper. The total cell extracts were appropriately diluted (5-10 fold), and assayed for the enzyme activity. The specific β-galactosidase activity was expressed in milliunit per milliliter (mU/ml) using a standard curve established from the β-galactosidase standard (provided with the kit). The protein concentration was measured with a BCA protein assay kit (Pierce, Ill., USA), and used to further convert the specific β-galactosidase activity from mU/ml to mU/μg total cellular protein. Six independent experiments were performed for each time and concentration data point.
(§1) Cells were seeded into 12-well plates in full DMEM and 500 μg/ml Zeocin. Twelve hours prior to the cytokine treatment, medium was changed so that the cells were allowed to grow in low serum (0.5% FBS) DMEM. The cells at a confluence of 70-80% were incubated with various concentrations (0, 0.1, 1 and 10 ng/ml) of recombinant human TGF-β1, PDGF-BB (BioVision, CA, USA) and 0, 0.1, 1 and 10 μg/ml lipopolysaccharide (LPS E. coli, Sigma) respectively for 0, 2, 8, 16, 24, 48 and 72 hours before they were harvested for β-galactosidase activity assay and real-time RT-PCR GFAP assay.
To quantify specific transgene response to TGF-β1, we first set up an experiment to assess possible effects that serum concentration and culture duration may have on the transgene expression. T6/lacZ/C1 cells were initially grown in DMEM with high serum (10% FBS), and then some of the cells were starved with a DMEM with low serum (0.5% FBS) for 12 hours prior to the addition of TGF-β1 (1 ng/ml). After incubation for various times (0, 2, 8, 24, 48 and 72 hours), cells were harvested for β-galactosidase activity assay. […] After 72 hours, the level slipped to 58% of the value at 0 hour (P<0.001). The assay results were depicted in FIG. 8.
To further dissect the TGF-β1 contribution to the transgene induction, we treated T6/lacZ/C1 cells grown in low serum with various concentrations of TGF-β1 (0, 0.1, 1, 10 ng/ml) and assayed the enzymatic activity for three time points (24, 48 and 72 hours). The assay results were plotted in FIG. 9. […] When the non-treatment groups were normalized to 1 and the magnitude of induction were plotted for the 10 ng/ml treatment groups at all three time points (FIG. 10), a trend of increasing induction with time was apparent.

[3] = test system: endogenous rat GFAP mRNA; test: real-time RT-PCR for endogenous rat GFAP mRNA in T6/lacZ/C1 cells; format: cell-based
Method: as §1
Total RNA was reverse transcribed to cDNA using Taqman's reverse transcription reagent (Cat. #N8O8-0234A total of 400 ng of RNA in 7.7 μl nuclease-free water was added to 2 μl 10× reverse transcriptase buffer, 4.4 μl 25 mM magnesium chloride, 4 μl deoxyNTP mixtures, 1 μl random hexamers, 0.4 μl RNase inhibitor and 0.5 μl reverse transcriptase (50 U/μl) in a final reaction volume of 20 μl. The reaction was performed for 10 min at 25° C. (annealing), 30 min at 48° C. (cDNA synthesis) and 5 min at 95° C. (enzyme denaturation).
Real-time quantitative PCR was carried out with an ABI 7500 Real Time PCR System (Applied Biosystems, CA, USA). One microliter of sample cDNA was used in each PCR reaction, with the housekeeping β-actin gene as a reference for normalization. The primers and probes for rat β-actin and GFAP were purchased from Taqman's assay-on-demand database. […]
(§2) Relative quantitation of the target mRNA was calculated using the comparative threshold cycle (CT) methods as described in the User Bulletin #2 (ABI Prism 7700 Sequence Detection System). CT indicates the fractional cycle number at which the amount of amplified target reaches a fixed threshold within the linear phase of gene amplification. ΔCT, which reflects the difference between CT target and CT β-actin, is inversely correlated to the abundance of mRNA transcripts in the samples. ΔCT for each sample was normalized against control experiment or calibrator and expressed as ΔΔCT. Relative quantitation is given by 2^−ΔΔCT to express the up-regulation or down regulation of the target gene under the treatments compared to the control. Six independent experiments were performed for each data point and three ACT were measured for each experiment.
It was known that GFAP, along with desmin, SMAA, and vimentin, was expressed in the clonal T6 cells (Vogel et al. (2000), J Lipid Res. 41(6):882). […] In order to investigate how the endogenous GFAP expression is regulated by TGF-β1 in the T6/lacZ/C1 cells during different time course, we quantified rat GFAP mRNA level using a real-time RT-PCR method. […] Total RNA was isolated from different cells and quantified as described in Materials and Methods, and the results were depicted in FIG. 11.

[4] = test system: GFAP-lacZ transgene; test: chemiluminescent β-galactosidase activity assay of GFAP-lacZ transgene expression in T6/GFAP-lacZ cells; format: cell-based, rat; conditions: 10 ng/ml PDGF-BB, 48 hours, low serum DMEM
Method: (§3) Cells were initially seeded in 12-well plates in DMEM supplemented with 10% FBS and weaned to a low serum DMEM (0.5% FBS) at a confluence of 70-80% for 12 hours of adaptation. Cells were then incubated with different concentrations of compounds for various amounts of time before being assayed for β-galactosidase activity and GFAP mRNA. For compound attenuation studies, cells were treated with a pro-fibrotic cytokine (TGF-β1 or PDGF-BB) either sequentially or concurrently with a compound (EGCG or genistein). In the sequential scheme, cells were first treated with a cytokine for 1-3 days, then the cytokine-containing culture medium was replaced with a fresh medium containing a particular compound only for various times. Details of the cytokine/compound treatments can be found in the individual figure legends.
A lacZ reporter assay kit for cell staining (InvivoGen, CA, USA) was used to detect the reporter gene activity in T6/GFAP-lacZ cells treated with EGCG or genistein. The staining results were documented with a digital camera (DP12) attached to an Olympus inverted bright field microscope (IX51) after development for 60 min. For quantification, the β-galactosidase activity in cell extracts was measured using a chemiluminescent assay kit (Roche, Mannheim, Germany) in a 96-well plate format, according to the manufacturer's instructions. Briefly, cells were washed twice with ice-cold 1×PBS (pH 7.4), lysed for 30 minutes at room temperature with the lysis buffer, and supernatant was collected for assays. Protein concentration was determined with a BCA protein assay kit (Pierce, Ill., USA). Specific β-galactosidase activity was obtained by normalizing against total cellular protein content.

[5] = test system: endogenous rat GFAP mRNA; test: real-time RT-PCR for endogenous rat GFAP mRNA in T6/GFAP-lacZ cells; format: cell-based; conditions: 10 ng/ml PDGF-BB, 24 hours, low serum DMEM
Method: as §3
Total RNA was reverse-transcribed to cDNA using Taqman's reverse transcription reagent (Applied Biosystems, CA, USA). A total of 200 ng of RNA in 7.7 μl of nuclease-free water was added to 2 μl 10× reverse transcriptase buffer, 4.4 μl 25 mM magnesium chloride, 4 μl deoxyNTP mixtures, 1 μl random hexamers, 0.4 μl RNase inhibitor and 0.5 μl reverse transcriptase (50 U/μl) in a final reaction volume of 20 μl. The reaction was performed for 10 min at 25° C. (annealing), 30 min at 48° C. (cDNA synthesis) and 5 min at 95° C. (enzyme denaturation).
Real-time quantitative PCR was carried out with an ABI 7500 Fast Real-time PCR System (Applied Biosystems, CA, USA). Two micro liters of sample cDNA were used in each PCR reaction, with β-actin gene as a reference for normalization. The primers and probes for rat β-actin and GFAP were ordered from Taqman's assay-on-demand database. The PCR reaction was performed under a default profile consisting of 95° C. for 20 seconds (enzyme denaturation) and 40 cycles of amplification (denaturation 3 seconds, annealing and extension 30 seconds). Some of the real-time RT-PCR reactions were separated on an agarose gel for visual confirmation of discrete products (data not shown).
as §2, with “samples. ACT” for “samples. ΔCT”, “or down-regulation” for “or down regulation”, “control.” for “control. Six independent experiments were performed for each data point and three ACT were measured for each experiment.”

[6] = 10 ng/ml TGF-β1, low serum, 72 hours

| Molecule | X-gal blue staining compared to the untreated [1] | specific β-galactosidase activity ([2]; 1 ng/ml TGF-β1, 0.5% FBS, 24 hour (peak)) | transgene expression level relative to 0 hour ([2]; 1 ng/ml TGF-β1, 0.5% FBS, 48 hours) | transgene expression level, % of the value at 0 hour ([2]; 1 ng/ml TGF-β1, 0.5% FBS, 72 hours) | induction of β-galactosidase activity ([2]; 10 ng/ml TGF-β1, low serum, 24, 48 and 72 hours) | absolute enzymatic (β-galactosidase) activity [2, 6] | magnitude of induction of β-galactosidase activity vs non-treatment group (normalized to 1) [2, 6] | GFAP mRNA level relative to basal level at 0 hour (normalized to 1) ([3]; 1 ng/ml TGF-β1, 16 hour) | GFAP mRNA level relative to basal level at 0 hour (normalized to 1) ([3]; 1 ng/ml TGF-β1, 48 hours) | GFAP mRNA level relative to basal level at 0 hour (normalized to 1) ([3]; 1 ng/ml TGF-β1, 72 hours) | GFAP mRNA level relative to basal level ([3]; 1 ng/ml TGF-β1, within the first 24 hours (except 16 hour)) | induction of transgenic GFAP-lacZ expression [4] | induction of endogenous GFAP [5] |
| --- | --- | --- | --- | --- | --- | --- | --- | --- | --- | --- | --- | --- | --- |
| TGF-β1: recombinant human transforming growth factor-β1, pro-fibrotic cytokine (BioVision) | more intense blue staining | 0.52 mU/μg | dropped to the same level as at 0 hour | 58% | Significant induction | 0.43 mU/μg | nearly two fold | 0.5 fold | 7 fold | 8.5 fold | remained steady |  |  |
| B1 | less pronounced response |  |  |  |  |  |  |  |  |  |  | 24% | 53% |
